Tests used:
PD-L1 = PD-L1 (Homo sapiens (Human), UniProt Q9NZQ7); experiment: PD-L1 whole blood internalization assay; type: cell-based; settings: 24 HR, PD-L1 expression on CD14+ cells, human interferon γ
Experimental: Example D. PD-L1 Whole Blood Internalization Assay
To determine PD-L1 internalization in human whole blood, normal human blood (Biological Specialty Corp, Colmar. Pa.) was incubated in the presence or absence of a concentration range of test compounds and 1 ng/ml human interferon γ (R&D Systems Inc. Minn. […] Blood was then stained with PD-L1 (MIH1, eBioscience; or BD Biosciences San Jose, Calif.), CD14 (Life Technologies, Carlsbad, Calif.) for 30 minutes in the dark at room temperature. Whole Blood/red cells were lysed/fixed (lysis buffer BD Biosciences) for 5 minutes at 37° C. in the dark and then centrifuged at 1600 RPM for 5 minutes. Cells were resuspended in Stain Buffer (BD Bioscience, San Jose, Calif.) and transferred into 96 well round bottom plates (Corning). Cells were gated on CD14+(BD Biosciences) and PD-L1 expression determined by mean fluorescence intensity (MFI) (BD LSRFortessa™ X-20). IC50 determination was performed by fitting the curve of compound percent inhibition versus the log of the compound concentration using the GraphPad Prism 7.0 software.

[1] = test system: U2OS/PD-L1 cells and Jurkat-PD-1-SHP cells; experiment: Src homology region 2 domain-containing phosphatase (SHP) assay; type: cell-based; settings: Homo sapiens, U2OS
Outline: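 U2OS/PD-L1 and Jurkat-PD-1-SHP cells (5000 each per well) were co-incubated with compound for 2 h at 37 °C in RPMI1640 with 1% FBS, 0.05% DMSO final. PathHunter chemiluminescence was read after 1 h at room temperature, and IC50 was fitted from percent of DMSO-control activity.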

[2] = test system: PD-L1 aAPC/CHO-K1 cells and Jurkat-PD-1-NFAT effector cells; experiment: Nuclear factor of activated T-cells (NFAT) assay; type: cell-based; settings: Cricetulus griseus, CHO-K1
Outline: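 CHO-K1 cells expressing PD-L1 aAPC were co-cultured with Jurkat-PD-1-NFAT effector cells in RPMI 1640 with 1% FBS and compound (0.4% DMSO; top concentration 2 μM) for 24 h at 37 °C. Bio-Glo luminescence was read, fold induction normalised to DMSO wells, and EC50 fitted from percent of control compound activity.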

[3] = target: PD-1/PD-L1 protein/protein interaction (recombinant human PD-L1 and human PD-1) (Homo sapiens (Human), UniProt Q9NZQ7); experiment: Homogeneous Time-Resolved Fluorescence (HTRF) PD-1/PD-L1 binding assay
Outline: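 Human PD-L1 (19-238, C-His; 10 nM final) and PD-1 (25-167, C-Fc; 3 nM final) preincubated 40 min with inhibitor in PBS pH 7.4, 0.05% Tween-20, 0.1% BSA, 1% DMSO, 25 °C. Eu-anti-human IgG (1 nM) and anti-His-APC (20 nM) added for 60 min; 665/620 nm ratio; IC50 from percent-control curves.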

Chain of PD-L1 (Q9NZQ7 19-290): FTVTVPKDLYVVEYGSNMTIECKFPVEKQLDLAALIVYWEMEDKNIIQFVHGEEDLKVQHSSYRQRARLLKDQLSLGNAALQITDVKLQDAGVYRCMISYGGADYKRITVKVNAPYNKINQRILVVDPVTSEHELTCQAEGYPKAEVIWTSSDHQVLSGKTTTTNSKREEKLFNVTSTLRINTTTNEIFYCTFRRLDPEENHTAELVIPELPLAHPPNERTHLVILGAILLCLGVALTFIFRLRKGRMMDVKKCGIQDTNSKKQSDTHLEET
Chain of PD-1/PD-L1 protein/protein interaction (recombinant human PD-L1 and human PD-1) (Q9NZQ7 19-238): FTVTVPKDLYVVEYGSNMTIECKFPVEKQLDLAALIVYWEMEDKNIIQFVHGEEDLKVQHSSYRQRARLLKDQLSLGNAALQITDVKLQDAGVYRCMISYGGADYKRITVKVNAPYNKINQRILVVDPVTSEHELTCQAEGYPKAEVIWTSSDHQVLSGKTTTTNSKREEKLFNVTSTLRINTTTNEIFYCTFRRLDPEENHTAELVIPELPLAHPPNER

SMILES	IC50 (PD-L1) [nM]	IC50 [1] [nM]	EC50 [2] [nM]	IC50 [3] [nM]
Cn1c(C(=O)Nc2cccc(-c3cccc(NC(=O)c4nc5c(n4C)CCN(CCC46CCC(C(=O)O)(CC4)C6)C5)c3Cl)c2Cl)nc2c1CCN(CCCO)C2 [Example 16, 4-(2-(2-((2,2′-dichloro-3′-(5-(3-hydroxypropyl)-1-methyl-4,5,6,7-tetrahydro-1H-imidazo[4,5-c]pyridine-2-carboxamido)-[1,1′-biphenyl]-3-yl)carbamoyl)-1-methyl-1,4,6,7-tetrahydro-5H-imidazo[4,5-c]pyridin-5-yl)ethyl)bicyclo[2.2.l]-heptane-1-carboxylic acid]	10 to 100	≤ 10	≤ 10	≤ 5
Cn1c(C(=O)Nc2cccc(-c3cccc(NC(=O)c4nc5c(n4C)CCN(CCC46CCC(C(=O)O)(CC4)C6)C5)c3Cl)c2Cl)nc2c1CCN(CCC13CCC(C(=O)O)(CC1)C3)C2 [Example 17, 4,4′-(((((2,2′-dichloro-[1,1′-biphenyl]-3,3′-diyl)bis(azanediyl))bis(carbonyl))bis(1-methyl-1,4,6,7-tetrahydro-5H-imidazo[4,5-c]pyridine-2,5-diyl))bis(ethane-2,1-diyl))bis(bicyclo[2.2.1]heptane-1-carboxylic acid)]	10 to 100	≤ 10	10 to 100	≤ 5
Cn1c(C(=O)Nc2cccc(-c3cccc(NC(=O)c4nc5c(n4C)CCN(CC46CCC(C(=O)O)(CC4)C6)C5)c3Cl)c2Cl)nc2c1CCN(CCC13CCC(C(=O)O)(CC1)C3)C2 [Example 18, 4-((2-((3′-(5-(2-(4-carboxybicyclo[2.2.1]heptan-1-yl)ethyl)-1-methyl-4,5,6,7-tetrahydro-1H-imidazo[4,5-c]pyridine-2-carboxamido)-2,2′-dichloro-[1,1′-biphenyl]-3-yl)carbamoyl)-1-methyl-1,4,6,7-tetrahydro-5H-imidazo[4,5-c]pyridin-5-yl)methyl)bicyclo[2.2.1]heptane-1-carboxylic acid]	10 to 100	≤ 10	10 to 100	≤ 5
Cn1c(C(=O)Nc2cccc(-c3cccc(NC(=O)c4nc5c(n4C)CCN(CC(=O)O)C5)c3Cl)c2Cl)nc2c1CCN(CCC13CCC(C(=O)O)(CC1)C3)C2 [Example 19, 4-(2-(2-((3′-(5-(carboxymethyl)-1-methyl-4,5,6,7-tetrahydro-1H-imidazo[4,5-c]pyridine-2-carboxamido)-2,2′-dichloro-[1,1′-biphenyl]-3-yl)carbamoyl)-1-methyl-1,4,6,7-tetrahydro-5H-imidazo[4,5-c]pyridin-5-yl)ethyl)bicyclo[2.2.1]heptane-1-carboxylic acid]	10 to 100	≤ 10	10 to 100	≤ 5
Cn1c(C(=O)Nc2cccc(-c3cccc(NC(=O)c4nc5c(n4C)CCN(CCC46CCC(C(=O)O)(CC4)C6)C5)c3Cl)c2Cl)nc2c1CCN(CCCC(=O)O)C2 [Example 20, 4-(2-(2-((3′-(5-(3-carboxypropyl)-1-methyl-4,5,6,7-tetrahydro-1H-imidazo[4,5-c]pyridine-2-carboxamido)-2,2′-dichloro-[1,1′-biphenyl]-3-yl)carbamoyl)-1-methyl-1,4,6,7-tetrahydro-5H-imidazo[4,5-c]pyridin-5-yl)ethyl)bicyclo[2.2.1]heptane-1-carboxylic acid]	10 to 100	≤ 10	10 to 100	≤ 5
Cn1c(C(=O)Nc2cccc(-c3cccc(NC(=O)c4nc5c(n4C)CCN(CC(C)(C)C(=O)O)C5)c3Cl)c2Cl)nc2c1CCN(CCC13CCC(C(=O)O)(CC1)C3)C2 [Example 21, 4-(2-(2-((3′-(5-(2-carboxy-2-methylpropyl)-1-methyl-4,5,6,7-tetrahydro-1H-imidazo[4,5-c]pyridine-2-carboxamido)-2,2′-dichloro-[1,1′-biphenyl]-3-yl)carbamoyl)-1-methyl-1,4,6,7-tetrahydro-5H-imidazo[4,5-c]pyridin-5-yl)ethyl)bicyclo[2.2.1]heptane-1-carboxylic acid]	10 to 100	≤ 10	10 to 100	≤ 5
Cn1c(C(=O)Nc2cccc(-c3cccc(NC(=O)c4nc5c(n4C)CCN(CC4(C(=O)O)CC4)C5)c3Cl)c2Cl)nc2c1CCN(CCC13CCC(C(=O)O)(CC1)C3)C2 [Example 22, 4-(2-(2-((3′-(5-((1-carboxycyclopropyl)methyl)-1-methyl-4,5,6,7-tetrahydro-1H-imidazo[4,5-c]pyridine-2-carboxamido)-2,2′-dichloro-[1,1′-biphenyl]-3-yl)carbamoyl)-1-methyl-1,4,6,7-tetrahydro-5H-imidazo[4,5-c]pyridin-5-yl)ethyl)bicyclo[2.2.1]heptane-1-carboxylic acid]	10 to 100	≤ 10	10 to 100	≤ 5
Cn1c(C(=O)Nc2cccc(-c3cccc(NC(=O)c4nc5c(n4C)CCN(CC46CCC(C(=O)O)(CC4)CC6)C5)c3Cl)c2Cl)nc2c1CCN(CCC13CCC(C(=O)O)(CC1)C3)C2 [Example 23, 4-((2-((3′-(5-(2-(4-carboxybicyclo[2.2.1]heptan-1-yl)ethyl)-1-methyl-4,5,6,7-tetrahydro-1H-imidazo[4,5-c]pyridine-2-carboxamido)-2,2′-dichloro-[1,1′-biphenyl]-3-yl)carbamoyl)-1-methyl-1,4,6,7-tetrahydro-5H-imidazo[4,5-c]pyridin-5-yl)methyl)bicyclo[2.2.2]octane-1-carboxylic acid]	100 to 500	≤ 10	10 to 100	≤ 5
Cn1c(C(=O)Nc2cccc(-c3cccc(NC(=O)c4nc5c(n4C)CCN(CC46CC(C(=O)O)(C4)C6)C5)c3Cl)c2Cl)nc2c1CCN(CCC13CCC(C(=O)O)(CC1)C3)C2 [Example 24, 3-((2-((3′-(5-(2-(4-carboxybicyclo[2.2.1]heptan-1-yl)ethyl)-1-methyl-4,5,6,7-tetrahydro-1H-imidazo[4,5-c]pyridine-2-carboxamido)-2,2′-dichloro-[1,1′-biphenyl]-3-yl)carbamoyl)-1-methyl-1,4,6,7-tetrahydro-5H-imidazo[4,5-c]pyridin-5-yl)methyl)bicyclo[1.1.1]-pentane-1-carboxylic acid]	10 to 100	≤ 10	10 to 100	≤ 5
Cn1c(C(=O)Nc2cccc(-c3cccc(NC(=O)c4nc5c(n4C)CCN(CCC46CCC(C(=O)O)(CC4)C6)C5)c3Cl)c2Cl)nc2c1CCN(CCc1ccc(C(=O)O)cc1)C2 [Example 25, 4-(2-(2-((3′-(5-(4-carboxyphenethyl)-1-methyl-4,5,6,7-tetrahydro-1H-imidazo[4,5-c]pyridine-2-carboxamido)-2,2′-dichloro-[1,1′-biphenyl]-3-yl)carbamoyl)-1-methyl-1,4,6,7-tetrahydro-5H-imidazo[4,5-c]pyridin-5-yl)ethyl)bicyclo[2.2.1]heptane-1-carboxylic acid]	100 to 500	10 to 100	10 to 100	≤ 5
Cc1c(NC(=O)c2nc3c(n2C)CCNC3)cccc1-c1cccc(NC(=O)c2nc3c(n2C)CCN(CCC24CCC(C(=O)O)(CC2)C4)C3)c1Cl [Example 27, 4-(2-(2-((2-chloro-2′-methyl-3′-(1-methyl-4,5,6,7-tetrahydro-1H-imidazo[4,5-c]pyridine-2-carboxamido)-[1,1′-biphenyl]-3-yl)carbamoyl)-1-methyl-1,4,6,7-tetrahydro-5H-imidazo[4,5-c]pyridin-5-yl)ethyl)bicyclo[2.2.1]heptane-1-carboxylic Acid]	10 to 100	≤ 10	10 to 100	≤ 5

Reference: US10618916B2, “Heterocyclic compounds as immunomodulators” (Incyte Corporation, priority 2018, dated 2020)
